Data on three compounds can be found in ChEMBL document CHEMBL1201862, “PubChem BioAssay data set” (2004).

A word on the IC50: it is the concentration that inhibits the measured activity by half.

Calls of active or inactive are those of the source. No stated cut-off is given here; in the data, actives have a measured IC50 and inactives only a lower limit.

Envelope glycoprotein gp160, sequence (Q6QLK5 whole entry, the tested form may be a part): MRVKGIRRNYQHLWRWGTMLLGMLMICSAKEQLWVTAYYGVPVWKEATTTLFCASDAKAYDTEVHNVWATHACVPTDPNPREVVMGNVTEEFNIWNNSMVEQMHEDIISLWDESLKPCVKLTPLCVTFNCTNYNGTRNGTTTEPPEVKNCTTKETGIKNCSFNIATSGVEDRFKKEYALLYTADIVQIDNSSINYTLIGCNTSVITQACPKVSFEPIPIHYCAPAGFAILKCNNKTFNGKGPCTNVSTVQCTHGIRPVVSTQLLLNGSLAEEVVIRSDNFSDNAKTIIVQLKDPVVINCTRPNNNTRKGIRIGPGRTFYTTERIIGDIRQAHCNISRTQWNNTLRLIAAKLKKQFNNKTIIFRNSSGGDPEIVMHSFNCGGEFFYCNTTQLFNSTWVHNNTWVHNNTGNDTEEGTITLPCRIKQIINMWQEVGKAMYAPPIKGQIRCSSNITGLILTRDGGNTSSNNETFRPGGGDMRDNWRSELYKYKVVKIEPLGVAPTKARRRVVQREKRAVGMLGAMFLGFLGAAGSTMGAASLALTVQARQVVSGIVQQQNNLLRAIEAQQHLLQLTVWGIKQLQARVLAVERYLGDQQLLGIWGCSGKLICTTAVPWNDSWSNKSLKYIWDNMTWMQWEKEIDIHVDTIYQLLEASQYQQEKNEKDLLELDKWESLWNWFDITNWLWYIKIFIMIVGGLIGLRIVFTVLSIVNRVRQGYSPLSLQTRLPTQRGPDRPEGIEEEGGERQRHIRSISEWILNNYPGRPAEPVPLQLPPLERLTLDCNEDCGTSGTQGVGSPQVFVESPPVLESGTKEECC

The experiment has as its target Envelope glycoprotein gp160 (Human immunodeficiency virus 1, UniProt Q6QLK5). The experiment is described as follows: inhibitors of HIV fusion peptide binding, primary screen, biochemical, uHTS, fluorescence dequenching (AID 1986).
As for `N#Cc1c(-c2ccccc2)nc(SCc2ccc(Cl)cc2)[nH]c1=O`, the half-maximal inhibitory concentration (IC50) was 22.5 µM (active). Consider `COc1ccc(/C=C2/SC(=O)N(CCCCCC(=O)Nc3ccccc3C(=O)O)C2=S)cc1`, for which the half-inhibitory concentration (IC50) is 18 µM (active).

`COc1cc(/C=N/Nc2ccc(Cl)c(C(=O)O)c2)ccc1OC(=O)c1ccccc1F`: the half-inhibitory concentration (IC50) is 26.2 µM (active).
